Laboratory results as given in ChEMBL document CHEMBL4308861, “Structure-based design and discovery of potent and selective lysine-specific demethylase 1 (LSD1) inhibitors” (Bioorg Med Chem Lett, 2019).

What was measured:
[1] = molecular target: T1, Lysine-specific histone demethylase 1A (Homo sapiens, UniProt O60341); assay: Inhibition of LSD1 (unknown origin)
hERG (KCNH2) = hERG (KCNH2) (Homo sapiens, UniProt Q12809); assay: Inhibition of human ERG at 10 uM relative to control
[2] = molecular target: T1, Lysine-specific histone demethylase 1A; assay: Inhibition of LSD1 in human THP1 cells assessed as induction of CD11b expression after 4 days by LIVE/DEAD violet staining based FACS analysis
[3] = AUC (0 to 6 hrs) in CD-1 mouse at 10 mg/kg, po; type: ADME, organism-based; design: dose 10 mg/kg, time < 6 hr, route oral; settings: in vivo
[4] = molecular target: T2, Amine oxidase [flavin-containing] B (Homo sapiens, UniProt P27338); assay: Inhibition of MAOB (unknown origin) at >20 uM
T2 sequence (P27338 whole entry): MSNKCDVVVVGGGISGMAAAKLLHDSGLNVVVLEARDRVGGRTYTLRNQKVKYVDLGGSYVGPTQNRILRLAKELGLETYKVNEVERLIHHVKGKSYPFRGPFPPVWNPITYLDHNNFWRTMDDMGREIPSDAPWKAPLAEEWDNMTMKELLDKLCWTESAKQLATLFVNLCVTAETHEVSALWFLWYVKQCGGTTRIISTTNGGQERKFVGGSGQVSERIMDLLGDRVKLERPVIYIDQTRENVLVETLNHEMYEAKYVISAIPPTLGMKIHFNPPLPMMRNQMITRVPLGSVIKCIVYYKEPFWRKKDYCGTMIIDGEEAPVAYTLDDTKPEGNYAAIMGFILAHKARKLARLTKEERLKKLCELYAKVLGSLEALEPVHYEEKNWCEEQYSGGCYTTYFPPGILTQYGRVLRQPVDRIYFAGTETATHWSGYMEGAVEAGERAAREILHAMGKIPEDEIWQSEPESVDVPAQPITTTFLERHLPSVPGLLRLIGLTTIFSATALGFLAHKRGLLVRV

[5] = molecular target: T3, Amine oxidase [flavin-containing] A (Homo sapiens, UniProt P21397); assay: Inhibition of MAOA (unknown origin) at >20 uM
T3 sequence (P21397 whole entry): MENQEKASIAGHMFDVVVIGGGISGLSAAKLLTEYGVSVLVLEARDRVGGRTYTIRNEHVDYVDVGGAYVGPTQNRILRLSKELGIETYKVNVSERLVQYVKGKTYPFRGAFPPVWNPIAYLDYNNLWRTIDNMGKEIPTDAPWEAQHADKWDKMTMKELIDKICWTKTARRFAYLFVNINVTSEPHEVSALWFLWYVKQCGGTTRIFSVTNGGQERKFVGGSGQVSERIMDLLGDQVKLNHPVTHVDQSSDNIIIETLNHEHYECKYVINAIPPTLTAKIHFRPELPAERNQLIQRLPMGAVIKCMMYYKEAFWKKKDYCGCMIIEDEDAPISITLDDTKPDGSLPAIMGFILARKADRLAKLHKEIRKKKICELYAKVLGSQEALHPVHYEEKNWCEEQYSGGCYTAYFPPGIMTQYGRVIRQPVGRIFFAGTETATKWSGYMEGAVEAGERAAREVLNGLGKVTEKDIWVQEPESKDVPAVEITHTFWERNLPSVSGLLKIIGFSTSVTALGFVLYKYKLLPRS

Chain of hERG (KCNH2) (Q12809 whole entry): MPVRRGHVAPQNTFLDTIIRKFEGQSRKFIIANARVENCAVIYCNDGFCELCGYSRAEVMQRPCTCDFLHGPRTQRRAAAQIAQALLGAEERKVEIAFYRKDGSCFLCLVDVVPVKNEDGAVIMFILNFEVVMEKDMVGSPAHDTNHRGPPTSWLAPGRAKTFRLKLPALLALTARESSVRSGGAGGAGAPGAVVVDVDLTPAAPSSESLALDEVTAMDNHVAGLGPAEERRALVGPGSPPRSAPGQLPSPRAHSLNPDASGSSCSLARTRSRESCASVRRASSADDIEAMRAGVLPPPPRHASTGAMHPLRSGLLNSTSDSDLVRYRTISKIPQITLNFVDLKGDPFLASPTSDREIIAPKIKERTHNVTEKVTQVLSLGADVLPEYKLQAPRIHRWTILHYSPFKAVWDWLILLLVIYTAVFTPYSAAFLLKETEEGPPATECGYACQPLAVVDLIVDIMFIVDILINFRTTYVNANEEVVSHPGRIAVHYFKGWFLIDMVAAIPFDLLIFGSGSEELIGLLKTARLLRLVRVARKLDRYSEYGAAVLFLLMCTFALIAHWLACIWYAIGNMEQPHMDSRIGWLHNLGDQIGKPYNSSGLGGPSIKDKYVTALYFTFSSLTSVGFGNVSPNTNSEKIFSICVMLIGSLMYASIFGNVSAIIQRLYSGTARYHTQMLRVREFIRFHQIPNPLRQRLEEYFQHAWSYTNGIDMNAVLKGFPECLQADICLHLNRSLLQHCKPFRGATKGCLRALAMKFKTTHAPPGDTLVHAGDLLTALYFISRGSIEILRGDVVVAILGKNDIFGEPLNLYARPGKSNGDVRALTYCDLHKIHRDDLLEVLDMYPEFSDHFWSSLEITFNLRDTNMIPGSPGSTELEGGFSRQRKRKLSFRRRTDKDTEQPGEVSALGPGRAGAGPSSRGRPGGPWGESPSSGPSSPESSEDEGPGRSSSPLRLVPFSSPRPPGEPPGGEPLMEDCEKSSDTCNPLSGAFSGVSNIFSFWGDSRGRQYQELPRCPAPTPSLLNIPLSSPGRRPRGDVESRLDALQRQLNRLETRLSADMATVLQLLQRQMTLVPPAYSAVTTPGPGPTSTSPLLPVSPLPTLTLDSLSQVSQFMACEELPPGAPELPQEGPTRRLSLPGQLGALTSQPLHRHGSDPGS

SMILES | IC50 [1] [nM] | inhibition at 10 µM (hERG (KCNH2)) [%] | EC50 [2] [nM] | AUC(0-t) at 6 h [3] [ng·h/mL] | inhibition (INH) [4] | inhibition (INH) [5]
Cc1ccc(-c2ncc(OC[C@@H]3CCNC3)cc2-c2ccc(C#N)cc2)cc1 | 10 | 90 | 62 | – | – | –
Cc1c(C(=O)N2CCC[C@@H](N)C2)nc(-c2ccc(C#N)c(F)c2)n1-c1ccc2nn(C)cc2c1 | – | < 10 | – | 25 | – | –
Cc1c(C(=O)N2CC[C@H](N(C)C)C2)nc(-c2ccc(C#N)c(F)c2)n1-c1ccc2nn(C)cc2c1 | – | 30 | – | 760 | Active | Active
Cc1c(C(=O)N2CCC[C@@H](N)C2)nc(-c2ccc(C#N)c(F)c2)n1-c1ccc2c(cnn2C)c1 | – | 52 | – | 106 | – | –
Cc1ccc(-n2c(-c3ccc(C#N)cc3)nc(C(=O)N3CCC[C@@H](N)C3)c2C)cc1 | – | 94 | – | – | – | –
COc1ccc(-n2c(-c3ccc(C#N)c(F)c3)nc(C(=O)N3CCC[C@@H](N)C3)c2C)cc1 | – | 69 | – | – | – | –
COc1ccc(-n2c(-c3ccc(C#N)c(F)c3)nc(C(=O)N[C@@H]3CCCNC3)c2C)cc1F | – | 65 | – | – | – | –
CN[C@H]1CCN(C(=O)c2nc(-c3ccc(C#N)c(F)c3)n(-c3cc4cn(C)nc4cc3F)c2C)C1 | – | 22 | – | – | Active | Active
Cc1c(C(=O)N2CC[C@H](N)C2)nc(-c2ccc(C#N)c(F)c2)n1-c1ccc2nn(C)cc2c1 | – | 12 | – | 80 | Active | Active
Cc1c(C(=O)N2CC[C@H](N(C)C)C2)nc(-c2ccc(C#N)c(F)c2)n1-c1cc(F)c2nn(C)cc2c1 | – | 17 | – | 660 | Active | Active
Cc1c(C(=O)N2CC[C@H](N(C)C)C2)nc(-c2ccc(C#N)c(F)c2)n1-c1cc2cn(C)nc2cc1F | – | 44 | – | 940 | Active | Active
CN[C@@H]1CCCN(C(=O)c2nc(-c3ccc(C#N)c(F)c3)n(-c3ccc4nn(C)c(Cl)c4c3)c2C)C1 | – | 34 | – | 410 | Active | Active
COc1ccc(-n2c(-c3ccc(C#N)c(F)c3)nc(C(=O)N3CCC[C@@H](N)C3)c2C)cc1F | – | 30 | – | – | – | –
CN[C@H]1CCN(C(=O)c2nc(-c3ccc(C#N)c(F)c3)n(-c3ccc4nn(C)c(Cl)c4c3)c2C)C1 | – | 24 | – | 640 | Active | Active
Cc1c(C(=O)N2CCC[C@@H](N)C2)nc(-c2ccc(C#N)c(F)c2)n1-c1ccc2nn(C)c(Cl)c2c1 | – | 28 | – | 100 | Active | Active
COc1ccc(-n2c(-c3ccc(C#N)c(F)c3)nc(C(=O)N3CC[C@H](N)C3)c2C)cc1F | – | 41 | – | – | – | –
